Experimental data reported in patent US7884242B2, “N-heterocyclylphthaldiamides as insecticides” (Bayer CropScience AG, priority 2004, dated 2011).
Structures can show the parent of a compound that is named as a salt.

How the values were obtained:
[1] = log P determination by HPLC on reverse phase column, pH 2.3; assay type: physicochemical; conditions: reverse phase column (C 18), pH 2.3, 43° C.; for chromatographic logP: reverse phase HPLC column (C 18)
Protocol: The determination of the log P values given in the above table and preparation examples is carried out in accordance with EEC directive 79/831 Annex V.A8 by HPLC (High Performance Liquid Chromatography) on a reverse phase column (C 18). Temperature: 43° C. The determination is carried out under acidic conditions at pH 2.3 with 0.1% aqueous phosphoric acid and acetonitrile as eluents; linear gradient of 10% acetonitrile to 95% acetonitrile. Calibration was is carried out with unbranched alkan-2-ones (with 3 to 16 carbon atoms) of known log P values (Determination of log P values by the retention times by linear interpolation between two sequential alkanones).

[2] = system: green peach aphid (Myzus persicae); assay: Myzus test (spray treatment); assay type: in vivo; conditions: for pest or weed control at 100 g/ha: Myzus persicae, in Brassica oleracea, 120 h, read-out: Death rate in % after 5d; for activity in Myzus test (spray treatment): statement in words
Protocol: [table] For the preparation of a suitable active compound formulation 1 part by weight of the active compound is mixed with the above amounts of solvent and emulsifier and the concentrate is diluted to the desired concentration with water containing emulsifier. China cabbage slices (Brassica pekinensis) that are infected with all stages of the green peach aphid (Myzus persicae) are sprayed with an active compound preparation at the desired concentration. After the desired time the activity in % is determined. Here 100% means that all aphids were killed; 0% means that no aphids were killed.

[3] = system: caterpillars of the fall army worm (Spodoptera frugiperda); assay: Spodoptera frugiperda test (spray treatment); assay type: in vivo; conditions: for pest or weed control at 4 g/ha: Spodoptera frugiperda, 168 h, spray treatment, maize leaf sections, after 7 d, read-out: Death rate in % after 7d; for activity in Spodoptera frugiperda test (spray treatment): statement in words
Protocol: [table] For the preparation of a suitable active compound formulation 1 part by weight of the active compound is mixed with the above amounts of solvent and emulsifier and the concentrate is diluted to the desired concentration with water containing emulsifier. Maize leaf sections (Zea mays) are sprayed with an active compound preparation of the desired concentration and after drying infected with caterpillars of the fall army worm (Spodoptera frugiperda). After the desired time the activity in % is determined. Here 100% means that all caterpillars were killed; 0% means that no caterpillars were killed.

[4] = 100 g/ha, spray treatment, China cabbage slices, after 5 d

| chromatographic logP [1] | log P (pH 2.3) [1] | SMILES | pest or weed control at 100 g/ha [2, 4] [%] | activity in Myzus test (spray treatment) [2] | further results |
| --- | --- | --- | --- | --- | --- |
| 2.68 | – | Cc1nc(Cn2nc(C(F)(F)F)cc2C(F)(F)F)ncc1C(=O)O [2-(3,5-bistrifluoromethylpyrazol-1-yl-methyl)-4-methylpyrimidin-5-carboxylic acid] | – | – | – |
| 3.8 | – | CSC[C@H](C)NC(=O)c1c(Cl)cccc1C(=O)Nc1cc(Cn2nc(C(F)(F)F)nc2C(F)(F)F)sc1C [Example 3] | – | – | – |
| 3.39 | – | CSC[C@H](C)NC(=O)c1c(Cl)cccc1C(=O)Nc1cnc(Cn2nc(C(F)(F)F)cc2C(F)(F)F)nc1C [Example 4, N^1-[2-(3,5-bis-trifluoromethyl-pyrazol-1-ylmethyl)-4-methylpyrimidin-5-yl]-3-chloro-N^2-(S-1-methyl-2-methylsulphanylethyl)phthalamide] | – | – | – |
| 2.17 | – | Cc1nc(Cn2nc(C(F)(F)F)cc2C(F)(F)F)ncc1NC(=O)c1cccc(Cl)c1C(=O)N[C@@H](C)C[S+](C)[O-] (some centres unmarked) [Example 5, N^1-[2-(3,5-bistrifluoromethylpyrazol-1-ylmethyl)-4-methylpyrimidin-5-yl]-3-chloro-N^2-(S-2-methanesulphinyl-1-methylethyl)phthalamide] | 80 | good activity | – |
| – | log P (pH 2.3): 2.32 | Cc1nc(Cn2nc(C(F)(F)F)cc2C(F)(F)F)ccc1NC(=O)c1cccc(Br)c1C(=O)NC(C)C[S+](C)[O-] (centres unmarked) [Example 11] | – | – | – |
| – | log P (pH 2.3): 3.52 | CSCC(C)NC(=O)c1c(I)cccc1C(=O)Nc1ccc(Cn2nc(C(F)(F)F)nc2C(F)(F)F)nc1C (centres unmarked) [Example 12] | – | – | – |
| 3.44 | – | CSC[C@H](C)NC(=O)c1c(Br)cccc1C(=O)Nc1cnc(Cn2nc(C(F)(F)F)cc2C(F)(F)F)nc1C [Example 18] | 100 | good activity | pest or weed control at 4 g/ha [3]: 100%; activity in Spodoptera frugiperda test (spray treatment) [3]: good activity |
| 3.55 | – | CSC[C@H](C)NC(=O)c1c(I)cccc1C(=O)Nc1cnc(Cn2nc(C(F)(F)F)cc2C(F)(F)F)nc1C [Example 19] | 100 | good activity | pest or weed control at 4 g/ha [3]: 83%; activity in Spodoptera frugiperda test (spray treatment) [3]: good activity |
| 3.24 | – | CSC[C@H](C)NC(=O)c1c(Cl)cccc1C(=O)Nc1cnc(Cn2nc(C(F)(F)F)nc2C(F)(F)F)nc1C [Example 20] | 100 | good activity | – |
| 3.29 | – | CSC[C@H](C)NC(=O)c1c(Br)cccc1C(=O)Nc1cnc(Cn2nc(C(F)(F)F)nc2C(F)(F)F)nc1C [Example 21] | 100 | good activity | – |
| 3.35 | – | CSC[C@H](C)NC(=O)c1c(I)cccc1C(=O)Nc1cnc(Cn2nc(C(F)(F)F)nc2C(F)(F)F)nc1C [Example 22] | 90 | good activity | – |
| 2.2 | – | Cc1nc(Cn2nc(C(F)(F)F)cc2C(F)(F)F)ncc1NC(=O)c1cccc(Br)c1C(=O)N[C@@H](C)C[S+](C)[O-] (some centres unmarked) [Example 23] | 80 | good activity | – |
| – | log P (pH 2.3): 3.29 | Cc1nc(Cn2nc(C(F)(F)C(F)(F)F)cc2C(F)(F)C(F)(F)F)ncc1NC(=O)c1cccc(Cl)c1C(=O)NC(C)CS(C)(=O)=O (centres unmarked) [Example 25] | – | – | – |
| – | log P (pH 2.3): 2.91 | Cc1nc(Cn2nc(C(F)(F)C(F)(F)F)cc2C(F)(F)C(F)(F)F)ncc1NC(=O)c1cccc(Cl)c1C(=O)NC(C)C[S+](C)[O-] (centres unmarked) [Example 26] | – | – | – |
| – | log P (pH 2.3): 4.11 | CSCC(C)NC(=O)c1c(Cl)cccc1C(=O)Nc1cnc(Cn2nc(C(F)(F)C(F)(F)F)cc2C(F)(F)C(F)(F)F)nc1C (centres unmarked) [Example 27] | – | – | – |
| 2.42 | – | Cc1nc(Cn2nc(C(F)(F)C(F)(F)F)nc2C(F)(F)F)ncc1NC(=O)c1cccc(Br)c1C(=O)N[C@@H](C)C[S+](C)[O-] (some centres unmarked) [Example 28] | 100 | good activity | – |
| 2.41 | – | Cc1nc(Cn2nc(C(F)(F)C(F)(F)F)nc2C(F)(F)F)ncc1NC(=O)c1cccc(Cl)c1C(=O)N[C@@H](C)C[S+](C)[O-] (some centres unmarked) [Example 29] | 100 | good activity | pest or weed control at 4 g/ha [3]: 100%; activity in Spodoptera frugiperda test (spray treatment) [3]: good activity |
| – | log P (pH 2.3): 1.67 | Cc1nc(Cn2nc(C(F)F)cc2C(F)F)ncc1NC(=O)c1cccc(Cl)c1C(=O)NC(C)C[S+](C)[O-] (centres unmarked) [Example 32] | – | – | – |
| – | log P (pH 2.3): 1.89 | Cc1nc(Cn2nc(C(F)F)cc2C(F)F)ncc1NC(=O)c1cccc(Cl)c1C(=O)NC(C)CS(C)(=O)=O (centres unmarked) [Example 33] | – | – | – |

| chromatographic logP [1] | log P (pH 2.3) [1] | SMILES | pest or weed control at 100 g/ha [2, 4] [%] | activity in Myzus test (spray treatment) [2] | further results |
| --- | --- | --- | --- | --- | --- |
| – | log P (pH 2.3): 2.65 | CSCC(C)NC(=O)c1c(Cl)cccc1C(=O)Nc1cnc(Cn2nc(C(F)F)cc2C(F)F)nc1C (centres unmarked) [Example 35] | – | – | – |
| 2.07 | – | Cc1nc(Cn2nc(C(F)(F)F)nc2C(F)(F)F)ncc1NC(=O)c1cccc(Br)c1C(=O)N[C@@H](C)C[S+](C)[O-] (some centres unmarked) [Example 36] | 100 | good activity | – |
| 2.49 | – | Cc1nc(Cn2nc(C(F)(F)F)nc2C(F)(F)F)ncc1NC(=O)c1cccc(Br)c1C(=O)N[C@@H](C)CS(C)(=O)=O [Example 37] | 100 | good activity | – |
| – | – | Cc1nc(Cn2nc(C(F)(F)F)cc2C(F)(F)F)ncc1NC(=O)c1cccc(Cl)c1C(=O)N[C@@H](C)CS(C)(=O)=O [Example 38] | 100 | – | – |
| – | – | Cc1nc(Cn2nc(C(F)(F)F)cc2C(F)(F)F)ncc1NC(=O)c1cccc(Cl)c1C(=O)N[C@@H](C)C[S+](C)[O-] (some centres unmarked) [Example 39] | – | good activity | Death rate in % after 5d [2, 4]: 100% |
| 2.13 | – | Cc1nc(Cn2nc(C(F)(F)F)nc2C(F)(F)F)ncc1NC(=O)c1cccc(I)c1C(=O)N[C@@H](C)C[S+](C)[O-] (some centres unmarked) [Example 40] | 100 | good activity | – |
| – | log P (pH 2.3): 3.95 | CSCC(C)NC(=O)c1c(Cl)cccc1C(=O)Nc1ccc(Cn2nc(C(F)(F)C(F)(F)F)cc2C(F)(F)F)nc1C (centres unmarked) [Example 42] | – | – | – |
| – | log P (pH 2.3): 3.80 | CSCC(C)NC(=O)c1c(Cl)cccc1C(=O)Nc1ccc(Cn2nc(C(F)(F)C(F)(F)F)nc2C(F)(F)F)nc1C (centres unmarked) [Example 43] | – | – | – |
| – | log P (pH 2.3): 2.76 | Cc1nc(Cn2nc(C(F)(F)F)cc2C(F)(F)F)ccc1NC(=O)c1cccc(Br)c1C(=O)NC(C)CS(C)(=O)=O (centres unmarked) [Example 45] | – | – | – |
| – | log P (pH 2.3): 4.15 | CSCC(C)NC(=O)c1c(Cl)cccc1C(=O)Nc1ccc(Cn2nc(C(F)(F)C(F)(F)F)c(C(F)(F)F)c2F)nc1C (centres unmarked) [Example 46] | – | – | – |
| – | log P (pH 2.3): 4.23 | CSCC(C)NC(=O)c1c(Cl)cccc1C(=O)Nc1ccc(Cn2nc(C(F)(F)C(F)(F)F)nc2C(F)(F)C(F)(F)F)nc1C (centres unmarked) [Example 47] | – | – | – |
| – | log P (pH 2.3): 4.37 | CSCC(C)NC(=O)c1c(Cl)cccc1C(=O)Nc1ccc(Cn2nc(C(F)(F)C(F)(F)F)cc2C(F)(F)C(F)(F)F)nc1C (centres unmarked) [Example 49] | – | – | – |
| 3.96 | – | CCOC(=O)c1cnc(Cn2nc(C(F)(F)F)cc2C(F)(F)F)nc1C [Example V-1, ethyl 2-(3,5-bistrifluoromethyl-pyrazol-1-yl-methyl)-4-methylpyrimidine-5-carboxylate] | – | – | – |
| 3.87 | – | CSC[C@H](C)/N=C1\OC(=O)c2cccc(I)c21 [II-1, 4-iodo-3-[(1S)-1-methyl-2-methylsulphanylethylimino]-3H-isobenzofuran-1-one] | – | – | – |
| 2.43 | – | Cc1nc(Cn2nc(C(F)(F)F)cc2C(F)(F)F)ncc1N [IIIa-2, 2-(3,5-bis-trifluoromethylpyrazol-1-yl-methyl)-4-methylpyrimidin-5-yl-amine] | – | – | – |
| 0.74 | – | N=C(N)Cn1nc(C(F)(F)F)cc1C(F)(F)F [IX-1, 2-(3,5-bistrifluoromethyl-pyrazol-1-yl)acetamidine hydrochloride] | – | – | – |
| 3.84 | – | Cc1nc(Cn2nc(C(F)(F)F)cc2C(F)(F)F)ncc1NC(=O)OC(C)(C)C [VI-1, tert-butyl [2-(3,5-bistrifluoromethylpyrazol-1-ylmethyl)-4-methylpyrimidin-5-yl]carbamidate] | – | – | – |
| 2.93 | – | COC(=O)Cn1nc(C(F)(F)F)cc1C(F)(F)F [methyl (3,5-bistrifluoromethyl-pyrazol-1-yl)acetate] | – | – | – |
